According to patent US9139592B2, “Modulators of Nrf2 and uses thereof” (TRT PHARMA INC., priority 2010, dated 2015):
“Also recorded” adds a separate entry of the source.

Tests used:
Type in all cases: cell-based
[1] = system: ARE-driven luciferase activity (Nrf2) in HepG2 cells; test: ARE-driven luciferase assay in HepG2 cells; details: test compounds at 10, 50 μM, 24 h
Protocol: (§1) One representative ARE (A2-ARE) from GSTA2 is used in this work, and A2-ARE are cloned into the KpnI and MluI sites of pGL3-promoter vector, which contains a heterologous SV40 promoter and a firefly luciferase reporter gene. Cells are seeded at 1×10^5 per well using 24-well plate, grown overnight before being transfected transfected with pGL3 and other designated constructs using LipofectAMINE (Invitrogen) for 5 h. The plasmid pRL, containing a renilla reniformis luciferase reporter gene, is cotransfected as internal control to correct transfection efficiency. After transfection, cells are treated with test compounds at designated concentrations for 24 h prior to harvesting. The cells are then washed twice with phosphate-buffered saline and harvested in 100 uL of 1× passive lysis buffer (Promega, Madison, Wis., USA). The luciferase activities are analyzed in 20-uL cell extracts with the Dual luciferase Assay™ kit (Promega) on a Lumat LB 9507 luminometer (Berthold Technologies, Oak Ridge, Tenn., USA). The related luciferase activities are expressed as a ratio of the pGL3 reporter activity to that of the control plasmid pRL. The fold of induction is expressed as ratio of induction from the treated cells versus the untreated. Values represent measurements from three independent experiments performed in triplicate and are presented as the mean±SEM.
(§2) The 23 top-score molecules from the first round of virtual screening are initially tested in the cell-based ARE-driven luciferase assay. Specifically, HepG2 cell line are transfected with ARE-driven pGL3 luciferase vector and then exposed to individual test compounds at 10, 50 μM. Classical Nrf2 inducers EQ and SFN were used as the positive controls. […] To examine the effect of these active compounds on Nrf2 nuclear translocation, Western blot analysis is used to measure the nuclear level of Nrf2 after cells are exposed to these compounds.

[2] = system: Nrf2 nuclear translocation in HepG2 cells; test: Western blot of nuclear Nrf2 (Nrf2 nuclear translocation) in HepG2 cells; details: 24 h
Protocol: (§3) Cells are treated with test compounds at designated concentrations and are harvested at 24 h. Sixty microgram of cell-lysate protein and 35 ug of nuclear extract are loaded into each lane, and electrophoresed through a 4-20% gradient SDS-PAGE gel (Bio-Rad, Mississauga, ON, Canada), and transferred onto a nitrocellulose membrane. The membrane is incubated with primary antibody and subsequently incubated with HRP-conjugated secondary antibody. Finally, ECL detection is carried out, and the results were recorded on X-ray film by autophotography.
as §2

[3] = system: γ-glutamylcysteine synthetase (GCS), a Nrf2-regulated protein, in HepG2 cells; test: Western blot of γ-glutamylcysteine synthetase (GCS) in HepG2 whole cell extracts; details: 24 h; for induction of GCS: whole cell protein extracts
Protocol: FIG. 3B illustrates endogenous γ-glutamylcysteine synthetase (GCS), a Nrf2-regulated protein, in whole cell protein extracts, detected by Western blotting. HepG2 cells were treated with EQ, SFN, DMSO, BM10, BM31 and BM40 at designated concentrations for 24 h.
as §3
Nrf2 is a master transcription factor regulating multiple ARE-regulated antioxidant and detoxifying enzymes, such as GCS, glutathione S-transferase (GST), NAD(P)H quinone oxidoreductase-1 (NQO1), and UDP glucuronosyltransferase (UGT), etc. The effects of our lead compounds on GCS are examined.

[4] = system: MCF-7 cells; test: MCF-7 cell viability (MTT, 72 h); details: dose range 10 nM to 10 μM
Protocol: FIG. 9 illustrates MCF-7 cell survival curves for BM10, BM31, BM40 and SFN. MCF-7 cells were treated with test compounds at designated concentrations for 72 hours. Viable cells were evaluated by MTT assays. Experiments were performed in triplicate and repeated twice.
(§4) Cells are seeded at 4×10^3 per well using 96-well plate, grown overnight before being treated with test compounds for 72 h. Viable cells are measured by MTT assays. To evaluate the ability of test compounds in protecting MCF-7 cells from the damage of B[a]P, MCF-7 cells are seeded at 2×10^3 per well using 96-well plate, grown overnight before being treated with test compounds at designed concentration for 48 h. Next, cells are treated with 160 nM B[a]P in the presence of test compound for another 72 h. The viable cells are measured using MTT assays. Experiments are performed in triplicate and repeated twice.

[5] = system: MCF-7 cells; test: Protection of MCF-7 cells from cytotoxic damage of B[a]P (MTT); details: low dose range 50 nM to 200 nM, 48 h pre-incubation, then 160 nM B[a]P + compound 72 h
Protocol: as §4
To test the capability of BM compounds in protecting against the cytotoxic effect of B[a]P, cellular assays using MCF-7 cells are performed. Incubation of MCF-7 cells with various concentrations of BM31 for 48 hours is followed by incubation with 160 nM B[a]P+the BM31 for 72 hours. MTT assays are performed to evaluate the protection effect of the BM31. DMSO without B[a]P was used as a control.

[6] = molecular target: T1, Nrf2/Keap1 complex (Homo sapiens, UniProt Q14145); test: Co-IP of Keap1 and Nrf2 in co-transfected 293T cells; details: 293T cells co-transfected with Nrf2 and Keap1; 24 h; BM31 50 μM, SFN 5 μM
T1 construct: expressed in transfected cells; host or cells: 293T
T1 sequence (Q14145 whole entry): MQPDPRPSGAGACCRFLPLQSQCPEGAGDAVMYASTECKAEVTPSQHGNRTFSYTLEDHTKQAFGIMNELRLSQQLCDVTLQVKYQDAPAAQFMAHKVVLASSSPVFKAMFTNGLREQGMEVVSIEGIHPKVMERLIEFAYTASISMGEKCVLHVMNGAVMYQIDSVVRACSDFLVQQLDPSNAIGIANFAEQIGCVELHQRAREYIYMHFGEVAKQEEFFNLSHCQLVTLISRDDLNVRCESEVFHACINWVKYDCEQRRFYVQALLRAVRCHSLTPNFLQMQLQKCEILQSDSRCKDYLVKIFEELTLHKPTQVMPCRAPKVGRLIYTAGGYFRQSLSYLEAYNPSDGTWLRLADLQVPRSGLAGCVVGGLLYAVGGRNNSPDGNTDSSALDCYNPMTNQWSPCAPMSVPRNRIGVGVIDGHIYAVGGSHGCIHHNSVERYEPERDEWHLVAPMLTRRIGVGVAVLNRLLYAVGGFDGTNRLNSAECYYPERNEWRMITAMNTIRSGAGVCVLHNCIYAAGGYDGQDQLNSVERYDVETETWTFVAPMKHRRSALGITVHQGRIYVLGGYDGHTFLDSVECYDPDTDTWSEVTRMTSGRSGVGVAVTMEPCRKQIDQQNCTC
T1 sequence (Q16236 whole entry partner): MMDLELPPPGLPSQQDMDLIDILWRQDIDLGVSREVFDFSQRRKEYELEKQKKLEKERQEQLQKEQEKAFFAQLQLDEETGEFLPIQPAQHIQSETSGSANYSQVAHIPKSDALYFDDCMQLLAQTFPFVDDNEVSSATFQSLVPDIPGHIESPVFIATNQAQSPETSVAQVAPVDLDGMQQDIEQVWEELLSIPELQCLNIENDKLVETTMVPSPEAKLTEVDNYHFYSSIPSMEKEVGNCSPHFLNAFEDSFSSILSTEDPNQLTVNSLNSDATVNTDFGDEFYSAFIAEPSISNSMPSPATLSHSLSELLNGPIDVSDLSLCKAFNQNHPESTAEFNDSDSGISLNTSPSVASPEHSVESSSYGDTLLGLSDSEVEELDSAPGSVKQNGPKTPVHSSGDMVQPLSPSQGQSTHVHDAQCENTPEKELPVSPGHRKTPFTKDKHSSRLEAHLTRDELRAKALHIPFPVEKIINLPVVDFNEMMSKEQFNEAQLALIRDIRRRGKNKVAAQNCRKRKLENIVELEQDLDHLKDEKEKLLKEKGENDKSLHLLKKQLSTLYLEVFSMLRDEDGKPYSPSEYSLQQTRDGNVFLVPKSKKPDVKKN
Protocol: FIG. 5 illustrates 293T cell lysates immunoprecipitated with Keap1 antibody and the eluted proteins were immunoblotted with Nrf2 antibody. Lane 1: Nrf2 transfection; Lanes 2, 3, 4: Nrf2 and Keap1 co-transfection. Lanes 2, 3, 4: treated with DMSO, BM31 (50 μM) and SFN (5 μM), respectively.
To study the effect of BM31 on the interaction of Keap1 and Nrf2, Co-IP experiments are performed. 293T cells are successfully transfected and achieved high Nrf2 expression in this cell line. In the co-IP experiments, 293T cells are co-transfected with Nrf2 and Keap1 expression vectors. After transfection, the cells are treated with SFN and BM31 for 24 h before harvesting. The cell lysates are used for IP with Keap1 antibody. The eluted proteins are immunoblotted with Nrf2 antibody. […] For example, arsenic induces the Nrf2-dependent response through markedly enhancing the interaction between Keap1 and Cul3, subunits of the E3 ubiquitin ligase for Nrf2, which leads to impaired dynamic assembly/disassembly of the E3 ubiquitin ligase and thus decreases its ligase activity, resulting in inhibition of Nrf2 ubiquitination and degradation. Our further work will determine whether BM31 induces Nrf2 via a mechanism similar to that of arsenic.

[7] = system: Keap1 mutants (C257S, C273S, C288S, C297S) / ARE-driven luciferase in 293T cells; test: ARE-driven luciferase assay in 293T cells co-transfected with Nrf2 and Keap1 IVR cysteine mutants; details: for effect of Keap1 C273S and C288S mutations on activation of ARE-driven luciferase activities / effect of Keap1 C297S mutant on potency in activating ARE-driven luciferase activities: 293T cells
Protocol: as §1
Keap1 is a multi-domain protein, in which the IVR domain contains 4 cysteine residues, C257, C273, C288 and C297. The known Nrf2 inducers may interact with these cysteine residues in the IVR domain, resulting in conformational change of Keap1 and ultimately activating Nrf2. To investigate the role of these active cysteine residues in the Nrf2-inducing activity of BM31, 4 Keap1 mutants (C257S, C273S, C288S and C297S) are tested. BM31 is selected for this and further investigation because the dose-response is consistent for its capability in inducing Nrf2 nuclear translocation and induction of enzyme GCS (FIG. 3). Co-transfection experiments to investigate the effects of Keap1 IVR cysteine mutants on ARE-driven luciferase activities are performed. Specifically, 293T cells are co-transfected with ARE-driven pGL3 luciferase report vector, Keap1 vector with and without the Nrf2 expression vector (FIG. 4). After transfection, the cells are exposed to BM31 at 50 μM for 16 h before harvest. The cell lysates are used for measurement of ARE-driven luciferase activities. […] Our conclusion is that BM31 targets the binding site around C297 in the IVR domain of Keap1, and mutation of residue C297 partially abolishes the Nrf2-inducing effect of BM31.

Structure (SMILES)	induction of ARE-driven luciferase activities [1]	induction of Nrf2 nuclear translocation (nuclear Nrf2 by Western blot) [2]	induction of GCS [3]	cytotoxic effects on proliferation of MCF-7 cells [4]	potency in elevating nuclear Nrf2 compared with SFN [2]	also measured
COc1ccc2nc3cc(Cl)ccc3c(C#N)c2c1 [BM4]	potently induce	modest activity; also recorded: triggered Nrf2 nuclear translocation				
O=C1C[C@@H](c2ccccc2)Oc2cc(O)cc(O)c21 [BM5]		triggered Nrf2 nuclear translocation				
Nc1nc(N)c2ncn(Cc3ccccc3)c2n1 [BM6]	potently induce	modest activity; also recorded: triggered Nrf2 nuclear translocation				
Nc1nc(S)c2ncn(C3CCCCC3)c2n1 [BM9]		modest activity; also recorded: triggered Nrf2 nuclear translocation				
Ic1ncnc2c1ncn2[C@H]1CCCS1 [BM10]		most potent; also recorded: triggered Nrf2 nuclear translocation	modest potency; also recorded: induced expression	do not have cytotoxic effects	comparable to that of SFN	
Cc1n[nH]c2c(Cc3ccco3)nnc(O)c12 [BM18]	potently induce	modest activity; also recorded: triggered Nrf2 nuclear translocation				
Cc1nnc(Cc2ccco2)c2[nH]nc(C)c12 [BM19]		triggered Nrf2 nuclear translocation				
Clc1ncnc2c1ncn2[C@H]1CCCS1 [BM31]		potent Nrf2 inducers; also recorded: triggered Nrf2 nuclear translocation	induced expression	do not have cytotoxic effects	comparable to that of SFN	potency in inducing GCS compared with SFN and EQ [3]: comparable to that of SFN and EQ; protection of MCF-7 cells from cytotoxic damage of B[a]P [5]: significant protection; also recorded: provides protections; effect on Nrf2/Keap1 complex (Keap1 IP, Nrf2 immunoblot) [6]: increases the Nrf2/Keap1 complex; effect of Keap1 C273S and C288S mutations on activation of ARE-driven luciferase activities [7]: do not completely abolish; effect of Keap1 C297S mutant on potency in activating ARE-driven luciferase activities [7]: limits the potency; also recorded: abolished the Nrf2 induction activity; induction of ARE-driven luciferase activities with C257S, C273S or C288S mutant Keap1 ([7]; 293T cells co-transfected with ARE-pGL3, Nrf2 and mutant Keap1, BM31 50 μM, 16 h): potently induces
O=C(c1ccccc1)C1COc2ccccc2C1O (stereo not shown) [BM40]		potent Nrf2 inducers; also recorded: triggered Nrf2 nuclear translocation	induced expression	do not have cytotoxic effects	comparable to that of SFN	potency in inducing GCS compared with SFN and EQ [3]: comparable to that of SFN and EQ
C[S+]([O-])CCCCN=C=S (stereo not shown) [SFN, sulforaphane, reference compound]						effect on Nrf2/Keap1 complex (Keap1 IP, Nrf2 immunoblot) [6]: increases the Nrf2/Keap1 complex; effect of Keap1 C273S and C288S mutations on activation of ARE-driven luciferase activities [7]: do not completely abolish; effect of Keap1 C297S mutant on potency in activating ARE-driven luciferase activities [7]: did not affect the potency
